# In publication PMC12123601, “Light-Induced, Lysine-Targeting Irreversible Covalent Inhibition of the Human Oxygen Sensing Hydroxylase Factor Inhibiting HIF (FIH)” (Journal of the American Chemical Society, 2025):
# Read-outs that look alike come from different tables or passages of the source.
# Experiments:
# FIH^WT = target: T1, FIH^WT (Homo sapiens, UniProt Q9NWT6); assay: Affinity-based fluorescence polarization (FP) assay with FIH WT, without and with 365 nm irradiation; settings: read-out: Binding affinity to FIH^WT: Ki
# T1 construct: pET28a vectors encoding for full-length FIH with an N-terminal His6 tag; His6 (N); host or cells: Escherichia coli BL21
# T1 sequence (Q9NWT6 whole entry): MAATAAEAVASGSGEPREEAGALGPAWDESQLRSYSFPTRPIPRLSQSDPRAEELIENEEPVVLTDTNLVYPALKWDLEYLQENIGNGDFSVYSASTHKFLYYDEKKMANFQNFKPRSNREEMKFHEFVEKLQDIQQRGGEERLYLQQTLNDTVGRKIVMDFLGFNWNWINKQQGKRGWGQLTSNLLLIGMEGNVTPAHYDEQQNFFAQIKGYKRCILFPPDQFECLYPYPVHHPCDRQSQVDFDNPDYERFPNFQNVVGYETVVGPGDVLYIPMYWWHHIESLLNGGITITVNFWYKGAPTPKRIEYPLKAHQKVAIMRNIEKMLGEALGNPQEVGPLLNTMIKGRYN
# Excerpt: We also performed a reported affinity-based fluorescence polarization (FP) assay (Figure S6) , under light activation to measure the binding affinity of NBA-ZG-2291 to FIH (Figure A). […] These observations are consistent with the intact protein MS analyzes. We also evaluated the binding affinities of two negative controls to FIH, which were designed not to covalently react with Lys106.
# (§1) 4 (A) Light-induced click conjugation between NBA-ZG-2291 and FIH protein. (B) Light-induced binding affinity of NBA-ZG-2291 to FIH^ WT . (C) Light-induced binding affinity of NBA-ZG-2291 to FIH^ K106A . […] TEXT PRINTED IN THE PICTURE: (B) NBA-ZG-2291: Binding affinity to FIH^WT: Ki (nM): 414 ± 14 (Irradtion time (min): 0); Binding affinity to FIH^WT: Ki (nM): 74.1 ± 1.6 (Irradtion time (min): 15); Binding affinity to FIH^WT: Ki (nM): 46.7 ± 1.4 (Irradtion time (min): 30); Binding affinity to FIH^WT: Ki (nM): 33.2 ± 0.6 (Irradtion time (min): 60); Binding affinity to FIH^WT: Ki (nM): 30.2 ± 2.0 (Irradtion time (min): 90); Binding affinity to FIH^WT: Ki (nM): 32.1 ± 0.7 (Irradtion time (min): 120) | (B) Neg-1: Binding affinity to FIH^WT: Ki (nM): 423 ± 7 (Irradtion time (min): 0); Binding affinity to FIH^WT: Ki (nM): 408 ± 30 (Irradtion time (min): 15); Binding affinity to FIH^WT: Ki (nM): 459 ± 32 (Irradtion time (min): 30); Binding affinity to FIH^WT: Ki (nM): 427 ± 17 (Irradtion time (min): 60); Binding affinity to FIH^WT: Ki (nM): 396 ± 29 (Irradtion time (min): 90); Binding affinity to FIH^WT: Ki (nM): 428 ± 15 (Irradtion time (min): 120) | (B) Neg-2: Binding affinity to FIH^WT: Ki (nM): 742 ± 65 (Irradtion time (min): 0); Binding affinity to FIH^WT: Ki (nM): 799 ± 69 (Irradtion time (min): 15); Binding affinity to FIH^WT: Ki (nM): 758 ± 13 (Irradtion time (min): 30); Binding affinity to FIH^WT: Ki (nM): 744 ± 30 (Irradtion time (min): 60); Binding affinity to FIH^WT: Ki (nM): 788 ± 36 (Irradtion time (min): 90); Binding affinity to FIH^WT: Ki (nM): 786 ± 35 (Irradtion time (min): 120) | (C) NBA-ZG-2291: Binding affinity to FIH^K106A: Ki (nM): 442 ± 12 (Irradtion time (min): 0); Binding affinity to FIH^K106A: Ki (nM): 427 ± 22 (Irradtion time (min): 15); Binding affinity to FIH^K106A: Ki (nM): 426 ± 7 (Irradtion time (min): 30); Binding affinity to FIH^K106A: Ki (nM): 420 ± 11 (Irradtion time (min): 60); Binding affinity to FIH^K106A: Ki (nM): 418 ± 5 (Irradtion time (min): 90); Binding affinity to FIH^K106A: Ki (nM): 424 ± 12 (Irradtion time (min): 120) | (C) Neg-1: Binding affinity to FIH^K106A: Ki (nM): 271 ± 14 (Irradtion time (min): 0); Binding affinity to FIH^K106A: Ki (nM): 275 ± 15 (Irradtion time (min): 15); Binding affinity to FIH^K106A: Ki (nM): 268 ± 25 (Irradtion time (min): 30); Binding affinity to FIH^K106A: Ki (nM): 266 ± 22 (Irradtion time (min): 60); Binding affinity to FIH^K106A: Ki (nM): 264 ± 41 (Irradtion time (min): 90); Binding affinity to FIH^K106A: Ki (nM): 270 ± 3 (Irradtion time (min): 120) | (C) Neg-2: Binding affinity to FIH^K106A: Ki (nM): 567 ± 37 (Irradtion time (min): 0); Binding affinity to FIH^K106A: Ki (nM): 548 ± 61 (Irradtion time (min): 15); Binding affinity to FIH^K106A: Ki (nM): 521 ± 50 (Irradtion time (min): 30); Binding affinity to FIH^K106A: Ki (nM): 627 ± 17 (Irradtion time (min): 60); Binding affinity to FIH^K106A: Ki (nM): 565 ± 10 (Irradtion time (min): 90); Binding affinity to FIH^K106A: Ki (nM): 552 ± 38 (Irradtion time (min): 120) […]
# (§2) 3. Experimental procedures
# 3.1 Fluorescence polarization (FP) assays1 with FIHWT and FIHK106A pET28a vectors encoding for full-length FIH with an N-terminal His6 tag or for FIH (K106A) with an N-terminal His6 tag were purchased from Nanjing Zoonbio Biotechnology. Both the FIHWT and FIHK106A protein were expressed from the respective plasmid in Escherichia coli BL21 at 20 °C for 16 h. E. coli cells were lysed and the lysate were clarified by centrifugation. His6- […]
# FIH^K106A = target: T2, FIH^K106A (Homo sapiens, UniProt Q9NWT6, K106A); assay: Affinity-based fluorescence polarization (FP) assay with the FIH K106A variant, without and with irradiation; format: binding; settings: read-out: Binding affinity to FIH^K106A: Ki
# T2 construct: encoding for full-length FIH with an N-terminal His6 tag or for FIH (K106A) with an N-terminal His6 tag; His6 (N); host or cells: Escherichia coli BL21
# T2 sequence (Q9NWT6 whole entry K106A): as the sequence (Q9NWT6 whole entry) above, with K106A counted along it
# Excerpt: as §1
# To further verify the covalent binding between NBA-ZG-2291 and Lys106, the FIH^ K106A variant was produced and purified.
# as §2
# 3.1 Fluorescence polarization (FP) assays1 with FIHWT and FIHK106A pET28a vectors encoding for full-length FIH with an N-terminal His6 tag or for FIH (K106A) with an N-terminal His6 tag were purchased from Nanjing Zoonbio Biotechnology. Both the FIHWT and FIHK106A protein were expressed from the respective plasmid in Escherichia coli BL21 at 20 °C for 16 h. E. coli cells were lysed and the lysate were clarified by centrifugation. His6-tagged FIHWT or FIHK106A was purified on a HisTrap affinity column (GE Healthcare) by elution with an imidazole gradient. The final purified proteins were stored in PBS buffer.
# FP assays were carried out using 384 -well plates (#3575, Corning); the polarization signal was measured using a SPARK Multi-Mode Microplate Reader (Tecan). […]
Ki (FIH^WT; irradiation time 0 min),Ki (FIH^WT; irradiation time 15 min),Ki (FIH^WT; irradiation time 30 min),Ki (FIH^WT; irradiation time 60 min),Ki (FIH^WT; irradiation time 90 min),Ki (FIH^WT; irradiation time 120 min),Ki (FIH^K106A; irradiation time 0 min),Ki (FIH^K106A; irradiation time 15 min),Ki (FIH^K106A; irradiation time 30 min),Ki (FIH^K106A; irradiation time 60 min),Ki (FIH^K106A; irradiation time 90 min),Ki (FIH^K106A; irradiation time 120 min),Structure (SMILES)
423 ± 7 nM,408 ± 30 nM,459 ± 32 nM,427 ± 17 nM,396 ± 29 nM,428 ± 15 nM,271 ± 14 nM,275 ± 15 nM,268 ± 25 nM,266 ± 22 nM,264 ± 41 nM,270 ± 3 nM,O=C(O)CNC(=O)c1ncc(-c2cc(-c3cccc([N+](=O)[O-])c3)no2)cc1O [Neg-1]
742 ± 65 nM,799 ± 69 nM,758 ± 13 nM,744 ± 30 nM,788 ± 36 nM,786 ± 35 nM,567 ± 37 nM,548 ± 61 nM,521 ± 50 nM,627 ± 17 nM,565 ± 10 nM,552 ± 38 nM,O=C(O)CNC(=O)c1ncc(-c2cc(-c3ccc(CO)cc3)no2)cc1O [Neg-2]
